Source: article PMC7859440, “Transporter Gene Regulation in Sandwich Cultured Human Hepatocytes Through the Activation of Constitutive Androstane Receptor (CAR) or Aryl Hydrocarbon Receptor (AhR)” (Frontiers in Pharmacology, 2021)
Values joined by “and” are separate entries in the source; they are usually repeats but may differ in a detail not shown here. Equal values may be shown once.

Legend:
[1] = system: CYP1A1; assay: in vitro
Method: (§1) Cryopreserved human hepatocytes were quickly thawed at 37°C and then transferred into hepatocyte thawing medium. Cells were pelleted at 100 × g for 10 min and then resuspended in hepatocyte complete plating medium (CP medium). The cells were then seeded at 65,000 cells per well in 96-well collagen I coated plates. After cell attachment (4–6 h post-seeding), CP medium was exchanged for ice-cold complete incubation medium (HI medium) containing BD Matrigel™ at the concentration of 0.25 mg/ml. The cells were then incubated overnight at 37°C in a humidified 5% CO2 incubator. […] Cell death or loss of adhesion of hepatocytes during or after treatment were examined by microscopy.
A RNeasy 96 Kit (Qiagen) was used to extract the total cellular RNA from sandwich cultured hepatocytes in 96-well plates following the manufacturer's instructions. A total volume of 200 μL RNA was obtained via the column elution provided in the RNeasy kit. Five μL RNA extraction was mixed with TaqMan® Fast Virus 1-Step Master Mix (Life Technologies) in a final reaction volume of 20 μL and qRT-PCR was achieved using a QuantStudio 6 Flex Real-Time PCR System (Life Technologies), following the manufacturer's instructions. β-actin mRNA expression in the SCHH was used as a house-keeping gene for the normalization of target gene expressions. The mRNA levels in SCHH treated with AhR or CAR activators were expressed by a fold change, compared to the gene expressions without the treatment. The 2^−ΔΔCt method ([Livak and Schmittgen, 2001]) was used to analyze the relative changes in gene expression, where the Ct is the cycle number at which the fluorescence in the reaction crosses the preset arbitrary threshold; the ΔCt represents the difference between the Ct target and reference and the ΔΔCt is the difference between the ΔCt of the test and the ΔCt of the preassigned control. Gene expression for each condition is expressed as a fold-change of mean ± standard deviation (SD) from three independent donors (each performed in triplicate). All primer and probe sets were purchased from Life Technologies (Table 2). […]

[2] = system: CYP3A4; assay: in vitro; settings: greater than 50% reduction, in only two donors among three lots of hepatocytes
Method: as §1
A RNeasy 96 Kit (Qiagen) was used to extract the total cellular RNA from sandwich cultured hepatocytes in 96-well plates following the manufacturer's instructions. A total volume of 200 μL RNA was obtained via the column elution provided in the RNeasy kit. Five μL RNA extraction was mixed with TaqMan® Fast Virus 1-Step Master Mix (Life Technologies) in a final reaction volume of 20 μL and qRT-PCR was achieved using a QuantStudio 6 Flex Real-Time PCR System (Life Technologies), following the manufacturer's instructions. β-actin mRNA expression in the SCHH was used as a house-keeping gene for the normalization of target gene expressions. The mRNA levels in SCHH treated with AhR or CAR activators were expressed by a fold change, compared to the gene expressions without the treatment. […] Gene expression for each condition is expressed as a fold-change of mean ± standard deviation (SD) from three independent donors (each performed in triplicate). All primer and probe sets were purchased from Life Technologies (Table 2). When concentration-dependent induction observed, the in vitro induction mRNA data were fitted using the sigmoid 3-parameter equation in GraphPad Prism (La Jolla, CA) to estimate the in vitro concentration of inducer that produced half the maximum induction values (EC50).

[3] = system: CYP2C9; settings: SCHH, 72 h; TCDD 50 nM, OP 50 µM, CITCO 5 µM, PB 1,000 µM (highest conc.); mean ± SD, three donors
Method: as §1
A RNeasy 96 Kit (Qiagen) was used to extract the total cellular RNA from sandwich cultured hepatocytes in 96-well plates following the manufacturer's instructions. […] The 2^−ΔΔCt method ([Livak and Schmittgen, 2001]) was used to analyze the relative changes in gene expression, where the Ct is the cycle number at which the fluorescence in the reaction crosses the preset arbitrary threshold; the ΔCt represents the difference between the Ct target and reference and the ΔΔCt is the difference between the ΔCt of the test and the ΔCt of the preassigned control. Gene expression for each condition is expressed as a fold-change of mean ± standard deviation (SD) from three independent donors (each performed in triplicate). […]

[4] = system: UGT1A1; assay: gene induction in sandwich-cultured human hepatocytes (qRT-PCR)
Method: as §1
(§2) A RNeasy 96 Kit (Qiagen) was used to extract the total cellular RNA from sandwich cultured hepatocytes in 96-well plates following the manufacturer's instructions. A total volume of 200 μL RNA was obtained via the column elution provided in the RNeasy kit. Five μL RNA extraction was mixed with TaqMan® Fast Virus 1-Step Master Mix (Life Technologies) in a final reaction volume of 20 μL and qRT-PCR was achieved using a QuantStudio 6 Flex Real-Time PCR System (Life Technologies), following the manufacturer's instructions. β-actin mRNA expression in the SCHH was used as a house-keeping gene for the normalization of target gene expressions. The mRNA levels in SCHH treated with AhR or CAR activators were expressed by a fold change, compared to the gene expressions without the treatment. The 2^−ΔΔCt method ([Livak and Schmittgen, 2001]) was used to analyze the relative changes in gene expression, where the Ct is the cycle number at which the fluorescence in the reaction crosses the preset arbitrary threshold; the ΔCt represents the difference between the Ct target and reference and the ΔΔCt is the difference between the ΔCt of the test and the ΔCt of the preassigned control. Gene expression for each condition is expressed as a fold-change of mean ± standard deviation (SD) from three independent donors (each performed in triplicate). All primer and probe sets were purchased from Life Technologies (Table 2). When concentration-dependent induction observed, the in vitro induction mRNA data were fitted using the sigmoid 3-parameter equation in GraphPad Prism (La Jolla, CA) to estimate the in vitro concentration of inducer that produced half the maximum induction values (EC50).

[5] = system: ABCB1 (MDR1); assay: as above; type: cell-based; settings: SCHH, 72 h; TCDD 50 nM, OP 50 µM, CITCO 5 µM, PB 1,000 µM (highest conc.); mean ± SD, three donors
Method: as §1, §2

[6] = system: ABCB11 (BSEP); assay: as above; type: cell-based; settings: SCHH, 72 h; TCDD 50 nM, OP 50 µM, CITCO 5 µM, PB 1,000 µM (highest conc.); mean ± SD, three donors
Method: as §1, §2

[7] = system: ABCC2 (MRP2); assay: as above; type: cell-based; settings: SCHH, 72 h; TCDD 50 nM, OP 50 µM, CITCO 5 µM, PB 1,000 µM (highest conc.); mean ± SD, three donors
Method: as §1, §2

[8] = system: ABCC3 (MRP3); assay: as above; type: cell-based; settings: SCHH, 72 h; TCDD 50 nM, OP 50 µM, CITCO 5 µM, PB 1,000 µM (highest conc.); mean ± SD, three donors
Method: as §1, §2

[9] = system: ABCC4 (MRP4); assay: as above; type: cell-based; settings: SCHH, 72 h; TCDD 50 nM, OP 50 µM, CITCO 5 µM, PB 1,000 µM (highest conc.); mean ± SD, three donors
Method: as §1, §2

[10] = system: ABCC5 (MRP5); assay: as above; type: cell-based; settings: SCHH, 72 h; TCDD 50 nM, OP 50 µM, CITCO 5 µM, PB 1,000 µM (highest conc.); mean ± SD, three donors
Method: as §1, §2

[11] = system: ABCC6 (MRP6); assay: as above; type: cell-based; settings: SCHH, 72 h; TCDD 50 nM, OP 50 µM, CITCO 5 µM, PB 1,000 µM (highest conc.); mean ± SD, three donors
Method: as §1, §2

[12] = system: SLC22A1 (OCT1); assay: as above; type: cell-based; settings: SCHH, 72 h; TCDD 50 nM, OP 50 µM, CITCO 5 µM, PB 1,000 µM (highest conc.); mean ± SD, three donors
Method: as §1, §2

[13] = system: SLC47A1 (MATE1); assay: as above; type: cell-based; settings: SCHH, 72 h; TCDD 50 nM, OP 50 µM, CITCO 5 µM, PB 1,000 µM (highest conc.); mean ± SD, three donors
Method: as §1, §2

[14] = system: SLCO1B1 (OATP1B1); assay: as above; type: cell-based; settings: SCHH, 72 h; TCDD 50 nM, OP 50 µM, CITCO 5 µM, PB 1,000 µM (highest conc.); mean ± SD, three donors
Method: as §1, §2

[15] = system: SLCO1B3 (OATP1B3); assay: as above; type: cell-based; settings: SCHH, 72 h; TCDD 50 nM, OP 50 µM, CITCO 5 µM, PB 1,000 µM (highest conc.); mean ± SD, three donors
Method: as §1, §2

[16] = system: SLCO2B1 (OATP2B1); assay: as above; type: cell-based; settings: SCHH, 72 h; TCDD 50 nM, OP 50 µM, CITCO 5 µM, PB 1,000 µM (highest conc.); mean ± SD, three donors
Method: as §1, §2

[17] = system: SLCO4C1 (OATP4C1); assay: as above; type: cell-based; settings: SCHH, 72 h; TCDD 50 nM, OP 50 µM, CITCO 5 µM, PB 1,000 µM (highest conc.); mean ± SD, three donors
Method: as §1, §2

[18] = system: SLC10A1 (NTCP); assay: as above; type: cell-based; settings: SCHH
Method: A RNeasy 96 Kit (Qiagen) was used to extract the total cellular RNA from sandwich cultured hepatocytes in 96-well plates following the manufacturer's instructions. A total volume of 200 μL RNA was obtained via the column elution provided in the RNeasy kit. Five μL RNA extraction was mixed with TaqMan® Fast Virus 1-Step Master Mix (Life Technologies) in a final reaction volume of 20 μL and qRT-PCR was achieved using a QuantStudio 6 Flex Real-Time PCR System (Life Technologies), following the manufacturer's instructions. β-actin mRNA expression in the SCHH was used as a house-keeping gene for the normalization of target gene expressions. The mRNA levels in SCHH treated with AhR or CAR activators were expressed by a fold change, compared to the gene expressions without the treatment. The 2^−ΔΔCt method ([Livak and Schmittgen, 2001]) was used to analyze the relative changes in gene expression, where the Ct is the cycle number at which the fluorescence in the reaction crosses the preset arbitrary threshold; the ΔCt represents the difference between the Ct target and reference and the ΔΔCt is the difference between the ΔCt of the test and the ΔCt of the preassigned control. Gene expression for each condition is expressed as a fold-change of mean ± standard deviation (SD) from three independent donors (each performed in triplicate). […] When concentration-dependent induction observed, the in vitro induction mRNA data were fitted using the sigmoid 3-parameter equation in GraphPad Prism (La Jolla, CA) to estimate the in vitro concentration of inducer that produced half the maximum induction values (EC50).

[19] = system: SLC15A1 (PEPT1); assay: as above; type: cell-based; settings: SCHH, 72 h; TCDD 50 nM, OP 50 µM, CITCO 5 µM, PB 1,000 µM (highest conc.); mean ± SD, three donors
[20] = system: SLC16A1 (MCT1); assay: as above; type: cell-based; settings: SCHH, 72 h; TCDD 50 nM, OP 50 µM, CITCO 5 µM, PB 1,000 µM (highest conc.); mean ± SD, three donors
[21] = system: SLC22A7 (OAT2); assay: as above; type: cell-based; settings: SCHH, 72 h; TCDD 50 nM, OP 50 µM, CITCO 5 µM, PB 1,000 µM (highest conc.); mean ± SD, three donors
[22] = system: SLC22A9 (OAT7); assay: as above; type: cell-based; settings: SCHH, 72 h; TCDD 50 nM, OP 50 µM, CITCO 5 µM, PB 1,000 µM (highest conc.); mean ± SD, three donors
[23] = system: SLC22A5 (OCTN2); assay: as above; type: cell-based; settings: SCHH, 72 h; TCDD 50 nM, OP 50 µM, CITCO 5 µM, PB 1,000 µM (highest conc.); mean ± SD, three donors
[24] = system: SLC29A1 (ENT1); assay: as above; type: cell-based; settings: SCHH, 72 h; TCDD 50 nM, OP 50 µM, CITCO 5 µM, PB 1,000 µM (highest conc.); mean ± SD, three donors
[25] = system: SLC29A2 (ENT2); assay: as above; type: cell-based; settings: SCHH, 72 h; TCDD 50 nM, OP 50 µM, CITCO 5 µM, PB 1,000 µM (highest conc.); mean ± SD, three donors
[26] = system: SLC51A (OSTα); assay: as above; type: cell-based; settings: SCHH, 72 h; TCDD 50 nM, OP 50 µM, CITCO 5 µM, PB 1,000 µM (highest conc.); mean ± SD, three donors
[27] = system: SLC51B (OSTβ); assay: as above; type: cell-based; settings: SCHH, 72 h; TCDD 50 nM, OP 50 µM, CITCO 5 µM, PB 1,000 µM (highest conc.); mean ± SD, three donors
[28] = SCHH, 72 h, TCDD 50 nM, OP 50 µM, CITCO 5 µM, PB 1,000 µM (highest conc.), mean ± SD, three donors

For `Clc1cc2c(cc1Cl)Oc1cc(Cl)c(Cl)cc1O2` [TCDD, 2,3,7,8-tetrachlorodibenzo-p-dioxin], the “CYP1A1 mRNA fold change” value [1, 28] was 38 fold and 38.1 ± 19.2 fold, the EC50 at 72 h ([1]; human) was 0.5 ± 0.11 nM and the “CYP3A4 mRNA fold change in single donors” value [2] was < 0.5 fold. The “CYP2C9 mRNA fold change” value [3] was 0.8 ± 0.3 fold, the “UGT1A1 mRNA fold change” value [4, 28] was 4.3 fold and 4.3 ± 1.5 fold and the EC50 at 72 h ([4]; human) was 1.56 ± 0.4 nM. For the same compound, the “ABCB1 (MDR1) mRNA fold change” value [5] was 1.0 ± 0.3 fold, the “ABCB11 (BSEP) mRNA fold change” value [6] was 0.7 ± 0.3 fold and the “ABCC2 (MRP2) mRNA fold change” value [7] was 0.9 ± 0.3 fold. For the same compound, the “ABCC3 (MRP3) mRNA fold change” value [8] was 1.0 ± 0.2 fold, the “ABCC4 (MRP4) mRNA fold change” value [9] was 0.7 ± 0.2 fold and the “ABCC5 (MRP5) mRNA fold change” value [10] was 0.9 ± 0.3 fold. For the same compound, the “ABCC6 (MRP6) mRNA fold change” value [11] was 0.8 ± 0.2 fold, the “SLC22A1 (OCT1) mRNA fold change” value [12] was 0.7 ± 0.3 fold and the “SLC47A1 (MATE1) mRNA fold change” value [13] was 0.9 ± 0.3 fold. For the same compound, the “SLCO1B1 (OATP1B1) mRNA fold change” value [14] was 1.0 ± 0.4 fold, the “SLCO1B3 (OATP1B3) mRNA fold change” value [15] was 0.8 ± 0.5 fold and the “SLCO2B1 (OATP2B1) mRNA fold change” value [16] was 1.1 ± 0.4 fold. The “SLCO4C1 (OATP4C1) mRNA fold change” value [17] was 0.8 ± 0.3 fold, the “SLC10A1 (NTCP) mRNA fold change” value ([18]; 72 h, TCDD 50 nM, OP 50 µM, CITCO 5 µM, PB 1,000 µM (highest conc.), mean ± SD, three donors) was 0.5 ± 0.2 fold and the “SLC10A1 gene suppression (reduction)” value ([18]; 3 days, highest concentration treated) was “about 2 fold”. The “SLC15A1 (PEPT1) mRNA fold change” value [19] was 1.2 ± 0.3 fold, the “SLC16A1 (MCT1) mRNA fold change” value [20] was 1.0 ± 0.2 fold and the “SLC22A7 (OAT2) mRNA fold change” value [21] was 0.8 ± 0.2 fold. For the same compound, the “SLC22A9 (OAT7) mRNA fold change” value [22] was 0.9 ± 0.2 fold, the “SLC22A5 (OCTN2) mRNA fold change” value [23] was 1.1 ± 0.2 fold and the “SLC29A1 (ENT1) mRNA fold change” value [24] was 0.9 ± 0.4 fold. For the same compound, the “SLC29A2 (ENT2) mRNA fold change” value [25] was 1.0 ± 0.2 fold, the “SLC51A (OSTα) mRNA fold change” value [26] was 1.5 ± 0.3 fold and the “SLC51B (OSTβ) mRNA fold change” value [27] was 1.6 ± 0.3 fold.
